Measurements reported in patent publication US20250074891A1 (Anaxis Pharma Pty Ltd., priority 2021, published 2025).

Assays:
Settings in all cases: Table 35
RIP3 = RIP3 (Homo sapiens (Human), UniProt Q9Y572); assay: KINOMEscan binding assay, RIP3
Protocol: (§1) Kinase assays. For most assays, kinase-tagged T7 phage strains were grown in parallel in 24-well blocks in an E. coli host derived from the BL21 strain. E. coli were grown to log-phase and infected with T7 phage from a frozen stock (multiplicity of infection=0.4) and incubated with shaking at 32° C. until lysis (90-150 minutes).
(§2) The Hill Slope was set to −1.

MLKL (full length) = MLKL (full length) (Homo sapiens (Human), UniProt Q8NB16); assay: KINOMEscan binding assay, MLKL (full length)
Protocol: as §1, §2

RIP1 = RIP1 (Homo sapiens (Human), UniProt Q13546); assay: KINOMEscan binding assay, RIP1
Sequence of RIP1 (Q13546 whole entry): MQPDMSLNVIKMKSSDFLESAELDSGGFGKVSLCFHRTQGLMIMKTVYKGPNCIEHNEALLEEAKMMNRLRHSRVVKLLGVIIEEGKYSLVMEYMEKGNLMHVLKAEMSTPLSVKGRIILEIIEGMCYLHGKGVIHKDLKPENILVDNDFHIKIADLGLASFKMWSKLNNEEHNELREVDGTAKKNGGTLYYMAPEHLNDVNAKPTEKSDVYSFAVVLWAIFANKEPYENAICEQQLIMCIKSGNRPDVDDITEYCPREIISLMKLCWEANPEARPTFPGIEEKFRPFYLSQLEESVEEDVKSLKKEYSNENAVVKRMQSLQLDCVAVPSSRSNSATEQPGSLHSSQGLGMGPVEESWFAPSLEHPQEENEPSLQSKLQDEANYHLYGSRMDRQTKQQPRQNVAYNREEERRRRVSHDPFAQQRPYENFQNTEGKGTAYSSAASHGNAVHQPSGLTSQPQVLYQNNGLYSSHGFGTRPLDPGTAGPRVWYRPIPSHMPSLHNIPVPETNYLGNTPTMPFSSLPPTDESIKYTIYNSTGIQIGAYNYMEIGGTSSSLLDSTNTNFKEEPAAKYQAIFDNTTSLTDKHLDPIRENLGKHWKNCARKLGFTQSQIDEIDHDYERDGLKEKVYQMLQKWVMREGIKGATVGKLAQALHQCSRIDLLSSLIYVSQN

Sequence of RIP3 (Q9Y572 whole entry): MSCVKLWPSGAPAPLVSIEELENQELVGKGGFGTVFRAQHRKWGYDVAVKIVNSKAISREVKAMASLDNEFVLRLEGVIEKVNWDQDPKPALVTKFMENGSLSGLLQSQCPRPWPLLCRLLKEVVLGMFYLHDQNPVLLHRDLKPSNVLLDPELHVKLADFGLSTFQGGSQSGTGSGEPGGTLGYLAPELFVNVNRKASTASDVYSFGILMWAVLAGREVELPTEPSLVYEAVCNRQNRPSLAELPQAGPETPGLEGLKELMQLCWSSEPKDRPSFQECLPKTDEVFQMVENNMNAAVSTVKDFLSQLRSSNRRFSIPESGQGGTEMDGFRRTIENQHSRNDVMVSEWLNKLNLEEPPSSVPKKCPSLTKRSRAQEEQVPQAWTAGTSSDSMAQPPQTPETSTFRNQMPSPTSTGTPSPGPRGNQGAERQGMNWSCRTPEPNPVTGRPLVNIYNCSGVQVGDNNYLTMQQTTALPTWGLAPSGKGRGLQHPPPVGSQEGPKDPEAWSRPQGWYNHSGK
Sequence of MLKL (full length) (Q8NB16 whole entry): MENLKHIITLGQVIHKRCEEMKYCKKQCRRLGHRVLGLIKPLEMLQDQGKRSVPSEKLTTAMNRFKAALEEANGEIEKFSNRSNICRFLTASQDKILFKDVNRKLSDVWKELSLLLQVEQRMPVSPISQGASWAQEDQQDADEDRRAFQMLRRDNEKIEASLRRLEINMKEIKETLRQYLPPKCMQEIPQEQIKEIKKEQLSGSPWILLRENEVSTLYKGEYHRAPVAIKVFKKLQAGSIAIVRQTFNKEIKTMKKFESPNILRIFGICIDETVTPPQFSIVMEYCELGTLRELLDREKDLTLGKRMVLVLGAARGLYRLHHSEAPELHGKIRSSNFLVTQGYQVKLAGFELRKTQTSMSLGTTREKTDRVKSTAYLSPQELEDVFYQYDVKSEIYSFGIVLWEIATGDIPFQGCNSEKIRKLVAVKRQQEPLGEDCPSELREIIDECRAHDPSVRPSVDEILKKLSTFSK

Row | Kd (RIP3) | Kd (MLKL (full length)) | Kd (RIP1) | SMILES
1 | > 30 µM | < 0.01 µM | > 30 µM | C[C@H](Oc1cc(-c2n[nH]c(Nc3cnc(C(C)(C)C)cn3)c2C(N)=O)ccc1NS(=O)(=O)C(F)F)c1ccc(F)cc1 [Compound 312, (S)-5-((5-(tert-butyl)pyrazin-2-yl)amino)-3-(4-((difluoromethyl)sulfonamido)-3-(1-(4-fluorophenyl)ethoxy)phenyl)-1H-pyrazole-4-carboxamide]
2 | > 30 µM | < 0.01 µM | > 30 µM | NC(=O)c1c(-c2ccc(NS(=O)(=O)CC(F)(F)F)c(OCc3ccc(F)c(F)c3)c2)n[nH]c1Nc1ccccn1 [Compound 160, 3-(3-((3,4-difluorobenzyl)oxy)-4-((2,2,2-trifluoroethyl)sulfonamido)phenyl)-5-(pyridine-2-ylamino)-1H-pyrazole-4-carboxamide]
3 | > 30 µM | < 0.01 µM | > 30 µM | CCS(=O)(=O)Nc1ccc(-c2n[nH]c(Nc3ccccn3)c2C(N)=O)cc1OCc1ccc(F)cc1 [Compound 30, 3-(4-(ethylsulfon-amido)-3-((4-fluorobenzyl)oxy)phenyl)-5-(pyridin-2-ylamino)-1H-pyrazole-4-carboxamide]
4 | > 30 µM | < 0.01 µM | > 30 µM | NC(=O)c1c(-c2ccc(NS(=O)(=O)CC(F)(F)F)cc2)n[nH]c1Nc1ccccn1 [Compound 268, 5-[(pyridin-2-yl)amino]-3-[4-(2,2,2-trifluoroethanesulfonamido)phenyl]-1H-pyrazole-4-carboxamide]
5 | > 30 µM | < 0.01 µM | > 30 µM | C[C@H](Oc1cc(-c2c(C(N)=O)c(Nc3cnccn3)nn2C)ccc1NS(=O)(=O)C(F)F)c1ccc(F)cc1 [Compound 253, 5-[4-(difluoromethanesulfonamido)-3-[(1S)-1-(4-fluorophenyl)ethoxy]phenyl]-1-methyl-3-[(pyrazin-2-yl)amino]-1H-pyrazole-4-carboxamide]
6 | > 30 µM | < 0.01 µM | > 30 µM | NC(=O)c1c(-c2ccc(NS(=O)(=O)CC(F)(F)F)c(OCc3ccc(F)cc3)c2)n[nH]c1Nc1cnccn1 [Compound 170, 3-(3-((4-fluorobenzyl)oxy)-4-((2,2,2-trifluoroethyl)sulfonamido)phenyl)-5-(pyrazin-2-ylamino)-1H-pyrazole-4-carboxamide]
7 | > 30 µM | < 0.01 µM | > 30 µM | NC(=O)c1c(-c2ccc(NS(=O)(=O)CC(F)(F)F)c(OC(c3ccc(F)cc3)C3CCC3)c2)n[nH]c1Nc1cnccn1 (stereo not drawn) [Compound 266, 3-{3-[cyclobutyl(4-fluorophenyl)methoxy]-4-(2,2,2-trifluoroethanesulfonamido)phenyl}-5-[(pyrazin-2-yl)amino]-1H-pyrazole-4-carboxamide]
8 | > 30 µM | < 0.01 µM | > 30 µM | CCS(=O)(=O)Nc1ccc(-c2n[nH]c(Nc3cnccn3)c2C(N)=O)cc1OCC1CCCCC1 [Compound 47, 3-(3-(cyclohexyl-methoxy)-4-(ethylsulfonamido)phenyl)-5-(pyrazin-2-ylamino)-1H-pyrazole-4-carboxamide]
9 | > 30 µM | < 0.01 µM | > 30 µM | C[C@H](Oc1cc(-c2n[nH]c(Nc3ccc(C4CCOCC4)cn3)c2C(N)=O)ccc1NS(=O)(=O)C(F)F)c1ccc(F)cc1 [Compound 278]
10 | > 30 µM | < 0.01 µM | > 30 µM | C[C@H](Oc1cc(-c2n[nH]c(Nc3cc(C(F)F)on3)c2C(N)=O)ccc1NS(=O)(=O)C(F)F)c1ccc(F)cc1 [Compound 314, (S)-5-((5-(difluoromethyl)isoxazol-3-yl)amino)-3-(4-((difluoromethyl)sulfonamido)-3-(1-(4-fluorophenyl)ethoxy)phenyl)-1H-pyrazole-4-carboxamide]
11 | > 30 µM | < 0.01 µM | > 30 µM | NC(=O)c1c(-c2ccc(NS(=O)(=O)CC(F)(F)F)c(OCc3ccc(Cl)c(F)c3)c2)n[nH]c1Nc1cnccn1 [Compound 165, 3-(3-((4-chloro-3-fluorobenzyl)oxy)-4-((2,2,2-trifluoroethyl)sulfonamido)phenyl)-5-(pyrazin-2-ylamino)-1H-pyrazole-4-carboxamide]
12 | > 30 µM | < 0.01 µM | > 30 µM | Cc1nc(Nc2[nH]nc(-c3ccc(NS(=O)(=O)C(F)F)c(O[C@@H](C)c4ccc(F)cc4)c3)c2C(N)=O)sc1C [Compound 284, (S)-3-(4-((difluoromethyl)sulfonamido)-3-(1-(4-fluorophenyl)ethoxy)phenyl)-5-((4,5-dimethylthiazol-2-yl)amino)-1H-pyrazole-4-carboxamide]
13 | > 30 µM | < 0.01 µM | > 30 µM | Cc1nn(C)cc1Nc1[nH]nc(-c2ccc(NS(=O)(=O)C(F)F)c(O[C@@H](C)c3ccc(F)cc3)c2)c1C(N)=O [Compound 270, (S)-3-(4-((difluoromethyl)sulfonamido)-3-(1-(4-fluorophenyl)ethoxy)phenyl)-5-((1,3-dimethyl-1H-pyrazol-4-yl)amino)-1H-pyrazole-4-carboxamide]
14 | > 30 µM | < 0.01 µM | > 30 µM | NC(=O)c1c(-c2ccc(NS(=O)(=O)CC(F)(F)F)c(Oc3ccc(F)cc3)c2)n[nH]c1Nc1cccc(C(F)(F)F)n1 [Compound 148, 3-(3-(4-fluorophenoxy)-4-((2,2,2-trifluoroethyl)sulfonamido)phenyl)-5-((6-(trifluoromethyl)pyridine-2-yl)amino)-1H-pyrazole-4-carboxamide]
15 | > 30 µM | < 0.01 µM | > 30 µM | NC(=O)c1c(-c2ccc(NS(=O)(=O)CC(F)(F)F)c(OCc3ccc(F)cn3)c2)n[nH]c1Nc1cnccn1 [Compound 231, 3-(3-((5-fluoropyridin-2-yl)methoxy)-4-((2,2,2-trifluoroethyl)sulfonamido)phenyl)-5-(pyrazin-2-ylamino)-1H-pyrazole-4-carboxamide]
16 | > 30 µM | < 0.01 µM | > 30 µM | COc1cnc(Nc2[nH]nc(-c3ccc(NS(=O)(=O)C(F)F)c(OCc4ccc(F)cc4)c3)c2C(N)=O)cn1 [Compound 191, 3-(4-((difluoromethyl)sulfonamido)-3-((4-fluorobenzyl)oxy)phenyl)-5-((5-methoxypyrazin-2-yl)amino)-1H-pyrazole-4-carboxamide]
17 | > 30 µM | < 0.01 µM | > 30 µM | CCS(=O)(=O)Nc1ccc(-c2n[nH]c(Nc3cccc(C(F)(F)F)n3)c2C(N)=O)cc1 [Compound 126, 3-(4-(ethylsulfonamido)phenyl)-5-((6-(trifluoromethyl)pyridin-2-yl)amino)-1H-pyrazole-4-carboxamide]
18 | > 30 µM | < 0.01 µM | > 30 µM | CCS(=O)(=O)Nc1ccc(-c2n[nH]c(Nc3cc(C)nc(C)c3)c2C(N)=O)cc1 [Compound 112, 5-((2,6-dimethylpyridin-4-yl)amino)-3-(4-(ethylsulfonamido)phenyl)-1H-pyrazole-4-carboxamide]
19 | > 30 µM | < 0.01 µM | > 30 µM | C[C@H](Oc1cc(-c2n[nH]c(Nc3cnc(C4CCOCC4)cn3)c2C(N)=O)ccc1NS(=O)(=O)C(F)F)c1ccc(F)cc1 [Compound 296, (S)-3-(4-((difluoromethyl)sulfonamido)-3-(1-(4-fluorophenyl)ethoxy)phenyl)-5-((5-(tetrahydro-2H-pyran-4-yl)pyrazin-2-yl)amino)-1H-pyrazole-4-carboxamide]
20 | > 30 µM | < 0.01 µM | > 30 µM | NC(=O)c1c(-c2ccc(NS(=O)(=O)C(F)F)c(OCc3ccc(F)cc3)c2)n[nH]c1Nc1ccc(C(F)(F)F)nc1 [Compound 188, 3-(4-((difluoromethyl)sulfonamido)-3-((4-fluorobenzyl)oxy)phenyl)-5-((6-(trifluoromethyl)pyridine-3-yl)amino)-1H-pyrazole-4-carboxamide]
21 | > 30 µM | < 0.01 µM | > 30 µM | Cc1cnc(Nc2[nH]nc(-c3ccc(NS(=O)(=O)CC(F)(F)F)c(OCc4ccc(F)c(Cl)c4)c3)c2C(N)=O)cn1 [Compound 155, 3-(3-((3-chloro-4-fluorobenzyl)oxy)-4-((2,2,2-trifluoroethyl)sulfonamido)phenyl)-5-((5-methylpyrazin-2-yl)amino)-1H-pyrazole-4-carboxamide]
22 | > 30 µM | < 0.01 µM | > 30 µM | C[C@H](Oc1cc(-c2n[nH]c(Nc3cc4n(n3)CCCN(C)C4)c2C(N)=O)ccc1NS(=O)(=O)C(F)F)c1ccc(F)cc1 [Compound 318, (S)-3-(4-((difluoromethyl)sulfonamido)-3-(1-(4-fluorophenyl)ethoxy)phenyl)-5-((5-methyl-5,6,7,8-tetrahydro-4H-pyrazolo[1,5-a][1,4]diazepin-2-yl)amino)-1H-pyrazole-4-carboxamide]
23 | > 30 µM | < 0.01 µM | > 30 µM | NC(=O)c1c(-c2ccc(NS(=O)(=O)C3CC3)c(OCc3ccc(F)cc3)c2)n[nH]c1Nc1cnccn1 [Compound 169, 3-(4-(cyclopropanesulfonamido)-3-((4-fluorobenzyl)oxy)phenyl)-5-(pyrazin-2-ylamino)-1H-pyrazole-4-carboxamide]
24 | > 30 µM | < 0.01 µM | > 30 µM | CCS(=O)(=O)Nc1ccc(-c2n[nH]c(Nc3cnccn3)c2C(N)=O)cc1OCc1cccc(F)c1 [Compound 26, 3-(4-(ethylsulfonamido)-3-((3-fluorobenzyl)oxy)phenyl)-5-(pyrazin-2-ylamino)-1H-pyrazole-4-carboxamide]
25 | > 30 µM | < 0.01 µM | > 30 µM | C[C@H](Oc1cc(-c2n[nH]c(Nc3cccc(C(F)(F)F)n3)c2C(N)=O)ccc1NS(=O)(=O)CC(F)(F)F)c1ccc(F)cc1 [Compound 249, 3-{3-[(1S)-1-(4-fluorophenyl)ethoxy]-4-(2,2,2-trifluoroethane-sulfonamido)phenyl}-5-{[6-(trifluoromethyl)pyridin-2-yl]amino}-1H-pyrazole-4-carboxamide]
